Test results published in ChEMBL document CHEMBL1201862, “PubChem BioAssay data set” (2004).
Activity calls are given as the source filed them.

How the values were obtained:
Aminopeptidase N = target: T1, Aminopeptidase N (Plasmodium falciparum FcB1/Columbia, UniProt O96935); assay: malaria alanyl aminopeptidase activity blockers – biochemical, fluorogenic H-Leu-NHMec substrate, 1536-well (AID 1445); parameters: species or system Plasmodium falciparum 3D7, 3D7
T1 sequence (O96935 whole entry): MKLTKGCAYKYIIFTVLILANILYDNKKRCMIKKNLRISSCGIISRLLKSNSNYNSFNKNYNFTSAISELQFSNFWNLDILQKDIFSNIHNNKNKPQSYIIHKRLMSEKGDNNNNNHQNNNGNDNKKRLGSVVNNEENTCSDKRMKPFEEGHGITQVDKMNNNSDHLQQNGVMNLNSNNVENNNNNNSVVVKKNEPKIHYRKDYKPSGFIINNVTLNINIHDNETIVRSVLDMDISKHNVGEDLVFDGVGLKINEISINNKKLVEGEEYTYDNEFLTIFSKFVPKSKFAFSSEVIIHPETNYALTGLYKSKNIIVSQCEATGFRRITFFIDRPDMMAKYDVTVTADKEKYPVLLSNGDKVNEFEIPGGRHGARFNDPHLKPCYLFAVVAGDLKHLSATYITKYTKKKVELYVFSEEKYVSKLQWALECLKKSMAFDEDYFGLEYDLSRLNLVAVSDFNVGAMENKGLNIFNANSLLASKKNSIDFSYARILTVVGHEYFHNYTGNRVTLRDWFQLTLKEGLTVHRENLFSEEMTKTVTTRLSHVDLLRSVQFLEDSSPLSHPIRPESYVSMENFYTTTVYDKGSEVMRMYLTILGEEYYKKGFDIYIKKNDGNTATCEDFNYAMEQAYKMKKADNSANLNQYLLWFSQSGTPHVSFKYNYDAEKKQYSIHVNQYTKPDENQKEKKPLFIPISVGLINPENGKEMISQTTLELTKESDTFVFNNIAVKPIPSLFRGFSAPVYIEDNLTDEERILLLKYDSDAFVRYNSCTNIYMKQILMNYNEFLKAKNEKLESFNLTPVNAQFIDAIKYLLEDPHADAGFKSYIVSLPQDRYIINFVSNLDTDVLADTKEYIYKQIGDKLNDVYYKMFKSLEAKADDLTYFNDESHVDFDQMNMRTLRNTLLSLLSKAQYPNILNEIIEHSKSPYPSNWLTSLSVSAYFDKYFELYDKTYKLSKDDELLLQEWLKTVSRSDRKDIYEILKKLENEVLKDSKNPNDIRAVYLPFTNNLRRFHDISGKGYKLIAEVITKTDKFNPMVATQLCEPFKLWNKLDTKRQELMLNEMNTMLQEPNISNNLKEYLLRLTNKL

[1] = target: T2, Histone-lysine N-methyltransferase NSD2 (Homo sapiens, UniProt O96028); type: biochemical
T2 sequence (O96028 whole entry): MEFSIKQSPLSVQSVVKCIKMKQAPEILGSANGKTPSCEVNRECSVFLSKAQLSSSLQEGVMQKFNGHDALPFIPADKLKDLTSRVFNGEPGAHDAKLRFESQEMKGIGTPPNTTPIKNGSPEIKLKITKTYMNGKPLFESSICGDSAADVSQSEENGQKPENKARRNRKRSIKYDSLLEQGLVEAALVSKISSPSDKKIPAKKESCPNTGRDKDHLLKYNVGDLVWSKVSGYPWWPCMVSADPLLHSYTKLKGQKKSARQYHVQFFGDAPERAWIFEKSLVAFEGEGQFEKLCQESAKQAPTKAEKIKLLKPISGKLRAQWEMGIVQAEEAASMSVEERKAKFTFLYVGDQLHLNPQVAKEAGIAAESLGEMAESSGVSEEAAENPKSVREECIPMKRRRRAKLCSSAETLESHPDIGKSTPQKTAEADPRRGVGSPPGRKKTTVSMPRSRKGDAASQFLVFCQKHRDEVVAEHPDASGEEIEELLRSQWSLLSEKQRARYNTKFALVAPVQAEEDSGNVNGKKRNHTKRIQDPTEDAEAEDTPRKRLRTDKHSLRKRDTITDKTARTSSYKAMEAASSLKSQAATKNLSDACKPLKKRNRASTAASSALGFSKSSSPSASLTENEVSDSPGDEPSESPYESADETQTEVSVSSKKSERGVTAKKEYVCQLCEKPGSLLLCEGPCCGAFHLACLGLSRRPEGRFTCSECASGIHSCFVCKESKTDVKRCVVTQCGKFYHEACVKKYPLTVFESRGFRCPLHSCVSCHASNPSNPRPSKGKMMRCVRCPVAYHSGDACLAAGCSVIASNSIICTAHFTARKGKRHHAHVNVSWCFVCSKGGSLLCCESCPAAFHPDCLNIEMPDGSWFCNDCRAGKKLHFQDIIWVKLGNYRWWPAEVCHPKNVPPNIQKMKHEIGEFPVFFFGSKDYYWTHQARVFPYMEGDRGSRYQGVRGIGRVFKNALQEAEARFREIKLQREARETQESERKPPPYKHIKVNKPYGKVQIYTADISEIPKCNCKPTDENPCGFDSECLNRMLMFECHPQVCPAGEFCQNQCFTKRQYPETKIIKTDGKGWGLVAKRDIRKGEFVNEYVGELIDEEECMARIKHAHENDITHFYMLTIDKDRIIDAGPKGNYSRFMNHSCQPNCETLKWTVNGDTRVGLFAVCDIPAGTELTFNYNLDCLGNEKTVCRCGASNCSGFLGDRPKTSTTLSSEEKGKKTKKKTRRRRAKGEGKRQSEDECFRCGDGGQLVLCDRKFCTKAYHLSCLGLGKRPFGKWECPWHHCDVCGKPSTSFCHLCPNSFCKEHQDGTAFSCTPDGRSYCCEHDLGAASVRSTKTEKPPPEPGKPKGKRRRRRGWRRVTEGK

[2] = target: Bifunctional protein GlmU (Mycobacterium tuberculosis, UniProt P9WMN3); assay: Inhibitors of Mycobacterial Glucosamine-1-phosphate acetyl transferase (GlmU). Secondary screen.; parameters: species or system Mycobacterium tuberculosis H37Rv
[3] = antiviral protection against BTV-induced cell death – arbovirus, BSR cells, confirmation (AID 1250); type: functional;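 note: protection from viral cytopathic effect measured as cell viability by ATP luminescence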
Hexokinase HKDC1 = target: T3, Hexokinase HKDC1 (Homo sapiens, UniProt Q2TB90); assay: inhibition of HKDC1 glucose phosphorylation – biochemical, W721R variant, dose response (AID 504729); type: functional
T3 sequence (Q2TB90 whole entry): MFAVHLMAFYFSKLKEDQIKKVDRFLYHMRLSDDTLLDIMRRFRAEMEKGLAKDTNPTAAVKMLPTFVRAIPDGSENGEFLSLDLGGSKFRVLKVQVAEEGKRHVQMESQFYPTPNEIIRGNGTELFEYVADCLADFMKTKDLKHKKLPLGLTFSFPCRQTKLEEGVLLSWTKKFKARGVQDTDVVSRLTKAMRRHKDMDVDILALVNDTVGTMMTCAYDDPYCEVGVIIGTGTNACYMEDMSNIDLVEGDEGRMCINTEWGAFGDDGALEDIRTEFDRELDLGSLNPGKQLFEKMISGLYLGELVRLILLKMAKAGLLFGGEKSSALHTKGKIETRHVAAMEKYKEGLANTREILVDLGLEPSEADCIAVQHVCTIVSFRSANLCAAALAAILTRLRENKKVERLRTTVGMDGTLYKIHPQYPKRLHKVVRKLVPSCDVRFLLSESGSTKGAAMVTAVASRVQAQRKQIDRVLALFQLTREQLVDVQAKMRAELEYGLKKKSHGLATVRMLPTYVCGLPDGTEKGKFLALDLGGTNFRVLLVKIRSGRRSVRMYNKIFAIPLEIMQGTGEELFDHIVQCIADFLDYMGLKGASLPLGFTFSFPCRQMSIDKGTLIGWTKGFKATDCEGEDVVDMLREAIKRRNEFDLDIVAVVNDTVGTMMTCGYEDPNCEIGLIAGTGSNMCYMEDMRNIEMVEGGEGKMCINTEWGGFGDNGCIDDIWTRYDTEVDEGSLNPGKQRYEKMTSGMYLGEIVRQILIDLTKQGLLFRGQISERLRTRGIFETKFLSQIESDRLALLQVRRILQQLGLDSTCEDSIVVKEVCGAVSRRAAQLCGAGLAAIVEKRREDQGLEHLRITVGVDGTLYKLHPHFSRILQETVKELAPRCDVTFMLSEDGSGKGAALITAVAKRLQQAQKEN

[4] = target: Mitogen-activated protein kinase 10 (Homo sapiens, UniProt P53779); assay: Dose response biochemical screening assay for inhibitors of c-Jun N-Terminal Kinase 3 (JNK3). [Related pubchem assays: 746 ]
[5] = target: Sphingosine 1-phosphate receptor 2 (Homo sapiens, UniProt O95136); assay: Dose Response Cell Based Assay for Agonists of the S1P2 Receptor. [Related pubchem assays: 729, 736, 843 ]; type: functional
[6] = target: T4, Rac GTPase-activating protein 1 (Homo sapiens, UniProt Q9H0H5); assay: blockers of MgcRacGAP-driven Rac1 GTP hydrolysis – biochemical, ADP Hunter fluorescence, primary and confirmatory, confirmation (AID 624330); type: functional
T4 sequence (Q9H0H5 whole entry): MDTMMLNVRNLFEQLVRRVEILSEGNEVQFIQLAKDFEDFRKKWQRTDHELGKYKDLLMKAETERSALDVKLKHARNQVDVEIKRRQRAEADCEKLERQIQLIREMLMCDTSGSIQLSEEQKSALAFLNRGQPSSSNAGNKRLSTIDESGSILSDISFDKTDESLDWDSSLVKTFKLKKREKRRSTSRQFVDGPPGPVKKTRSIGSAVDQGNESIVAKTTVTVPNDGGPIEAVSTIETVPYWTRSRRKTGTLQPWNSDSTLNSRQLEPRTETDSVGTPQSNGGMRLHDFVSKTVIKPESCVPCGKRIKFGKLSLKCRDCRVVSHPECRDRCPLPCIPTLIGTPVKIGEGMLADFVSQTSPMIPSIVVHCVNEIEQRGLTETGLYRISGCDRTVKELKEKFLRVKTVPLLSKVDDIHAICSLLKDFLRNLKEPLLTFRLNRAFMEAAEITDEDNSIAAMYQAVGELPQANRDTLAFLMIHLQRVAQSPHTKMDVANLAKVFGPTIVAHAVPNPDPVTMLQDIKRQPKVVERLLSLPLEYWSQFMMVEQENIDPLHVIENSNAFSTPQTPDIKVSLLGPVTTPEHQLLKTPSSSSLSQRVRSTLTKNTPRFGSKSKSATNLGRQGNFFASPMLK

[7] = target: Mannose-6-phosphate isomerase (Homo sapiens, UniProt P34949); assay: MPI inhibition at elevated mannose 6-phosphate – biochemical, fluorescence intensity, high mannose 6-phosphate, primary screen (AID 1220)
[8] = target: T5, Apoptotic protease-activating factor 1 (Homo sapiens, UniProt O14727); type: functional
T5 sequence (O14727 whole entry): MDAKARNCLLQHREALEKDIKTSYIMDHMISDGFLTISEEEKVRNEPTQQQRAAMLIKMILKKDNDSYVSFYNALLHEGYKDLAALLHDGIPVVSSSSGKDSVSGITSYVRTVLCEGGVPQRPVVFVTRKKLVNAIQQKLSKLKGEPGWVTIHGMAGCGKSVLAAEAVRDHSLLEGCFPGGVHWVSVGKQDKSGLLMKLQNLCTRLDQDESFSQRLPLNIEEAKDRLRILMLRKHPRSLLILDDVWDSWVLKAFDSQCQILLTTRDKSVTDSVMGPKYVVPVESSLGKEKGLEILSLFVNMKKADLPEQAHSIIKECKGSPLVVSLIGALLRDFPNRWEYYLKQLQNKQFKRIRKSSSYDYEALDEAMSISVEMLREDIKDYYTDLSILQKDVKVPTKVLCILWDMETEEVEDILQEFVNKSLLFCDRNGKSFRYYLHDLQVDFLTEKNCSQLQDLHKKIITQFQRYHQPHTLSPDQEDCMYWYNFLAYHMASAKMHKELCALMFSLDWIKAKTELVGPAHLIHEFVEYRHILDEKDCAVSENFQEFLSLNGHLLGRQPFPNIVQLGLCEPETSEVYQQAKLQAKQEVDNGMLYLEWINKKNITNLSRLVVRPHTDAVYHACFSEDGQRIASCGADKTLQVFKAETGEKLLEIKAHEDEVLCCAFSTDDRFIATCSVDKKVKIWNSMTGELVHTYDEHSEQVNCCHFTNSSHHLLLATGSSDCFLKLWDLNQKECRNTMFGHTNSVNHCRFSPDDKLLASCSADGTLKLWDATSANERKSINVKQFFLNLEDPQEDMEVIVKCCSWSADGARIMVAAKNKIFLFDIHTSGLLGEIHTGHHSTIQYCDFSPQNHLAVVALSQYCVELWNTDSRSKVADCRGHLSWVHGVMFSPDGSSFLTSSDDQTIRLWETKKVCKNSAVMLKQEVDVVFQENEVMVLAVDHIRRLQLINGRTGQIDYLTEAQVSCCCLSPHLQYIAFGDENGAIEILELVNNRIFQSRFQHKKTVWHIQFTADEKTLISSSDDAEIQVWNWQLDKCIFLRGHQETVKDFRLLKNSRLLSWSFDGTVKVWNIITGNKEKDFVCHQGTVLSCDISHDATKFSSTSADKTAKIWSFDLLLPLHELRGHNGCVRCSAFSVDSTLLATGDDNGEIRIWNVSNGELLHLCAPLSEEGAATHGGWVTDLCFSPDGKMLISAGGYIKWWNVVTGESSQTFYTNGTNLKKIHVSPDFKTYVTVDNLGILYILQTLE

[9] = target: T6, Low molecular weight phosphotyrosine protein phosphatase (Homo sapiens, UniProt P24666); assay: inhibition of LMPTP-A enzymatic activity – biochemical, OMFP substrate, fluorescence intensity, set 2, dose response (AID 743307); type: functional
T6 sequence (P24666 whole entry): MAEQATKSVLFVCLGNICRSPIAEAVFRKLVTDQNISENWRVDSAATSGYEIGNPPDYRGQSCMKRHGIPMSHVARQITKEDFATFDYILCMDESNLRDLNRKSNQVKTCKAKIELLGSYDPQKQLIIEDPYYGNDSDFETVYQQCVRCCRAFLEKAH

[10] = target: T6, Low molecular weight phosphotyrosine protein phosphatase; assay: inhibition of human LMPTP enzyme activity – biochemical, absorbance, pNPP substrate, LMPTP-A isoform, set 2, orthogonal assay, dose response (AID 743308); type: functional

Sequence of Sphingosine 1-phosphate receptor 2 (O95136 whole entry): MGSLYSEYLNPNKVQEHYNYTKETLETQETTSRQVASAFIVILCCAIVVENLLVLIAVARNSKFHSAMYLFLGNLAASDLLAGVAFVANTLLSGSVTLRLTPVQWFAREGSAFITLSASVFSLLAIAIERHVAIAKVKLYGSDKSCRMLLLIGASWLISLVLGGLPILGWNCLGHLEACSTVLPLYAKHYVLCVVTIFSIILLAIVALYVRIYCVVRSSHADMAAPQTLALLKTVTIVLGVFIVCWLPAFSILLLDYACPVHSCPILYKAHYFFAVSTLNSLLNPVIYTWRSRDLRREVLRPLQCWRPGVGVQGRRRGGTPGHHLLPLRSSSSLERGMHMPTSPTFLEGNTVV
Sequence of Mannose-6-phosphate isomerase (P34949 whole entry): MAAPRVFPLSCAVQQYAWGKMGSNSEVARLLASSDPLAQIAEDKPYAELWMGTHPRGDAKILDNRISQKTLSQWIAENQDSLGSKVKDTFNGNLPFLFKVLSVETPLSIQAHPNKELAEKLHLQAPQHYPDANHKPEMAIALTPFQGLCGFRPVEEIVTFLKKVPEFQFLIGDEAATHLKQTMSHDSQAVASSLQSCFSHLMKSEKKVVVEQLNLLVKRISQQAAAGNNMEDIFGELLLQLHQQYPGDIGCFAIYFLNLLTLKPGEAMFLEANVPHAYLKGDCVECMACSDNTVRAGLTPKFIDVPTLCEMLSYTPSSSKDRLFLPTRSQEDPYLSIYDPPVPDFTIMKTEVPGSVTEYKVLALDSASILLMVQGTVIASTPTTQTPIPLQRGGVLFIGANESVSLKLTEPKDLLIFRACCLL
Sequence of Bifunctional protein GlmU (P9WMN3 whole entry): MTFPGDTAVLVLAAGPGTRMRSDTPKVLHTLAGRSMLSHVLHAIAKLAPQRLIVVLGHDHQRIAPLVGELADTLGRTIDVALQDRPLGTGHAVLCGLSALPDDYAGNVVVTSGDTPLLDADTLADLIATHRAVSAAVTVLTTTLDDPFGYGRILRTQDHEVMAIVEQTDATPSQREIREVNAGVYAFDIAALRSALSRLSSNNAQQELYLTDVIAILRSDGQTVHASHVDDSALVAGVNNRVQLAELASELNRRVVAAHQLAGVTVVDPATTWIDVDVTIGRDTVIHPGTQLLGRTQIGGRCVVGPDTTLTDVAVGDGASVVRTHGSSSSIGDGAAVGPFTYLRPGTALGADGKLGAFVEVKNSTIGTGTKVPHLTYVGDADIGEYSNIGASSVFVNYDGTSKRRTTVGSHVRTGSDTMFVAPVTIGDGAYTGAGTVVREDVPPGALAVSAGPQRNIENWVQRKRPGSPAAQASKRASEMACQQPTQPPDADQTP
Sequence of Mitogen-activated protein kinase 10 (P53779 whole entry): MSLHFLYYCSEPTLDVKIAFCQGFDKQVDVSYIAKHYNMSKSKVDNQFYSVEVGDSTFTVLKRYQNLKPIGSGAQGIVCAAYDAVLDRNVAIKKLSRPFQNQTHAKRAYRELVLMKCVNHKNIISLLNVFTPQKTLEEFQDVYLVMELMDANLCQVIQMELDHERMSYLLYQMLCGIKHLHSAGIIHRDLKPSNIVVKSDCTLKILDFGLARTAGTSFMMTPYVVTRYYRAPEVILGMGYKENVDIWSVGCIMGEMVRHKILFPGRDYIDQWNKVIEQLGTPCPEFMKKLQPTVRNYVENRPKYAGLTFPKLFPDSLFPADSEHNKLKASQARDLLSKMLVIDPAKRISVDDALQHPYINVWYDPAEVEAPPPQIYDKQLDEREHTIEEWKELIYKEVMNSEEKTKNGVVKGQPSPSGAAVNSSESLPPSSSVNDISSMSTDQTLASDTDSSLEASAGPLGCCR

COc1cc(/C=C(\C#N)c2nc3cc(C)ccc3[nH]2)cc([N+](=O)[O-])c1O
IC50 (Aminopeptidase N): 16.2 µM (active)
AC50 [1]: > 20 µM (inactive)
IC50 [2]: 94.3 µM (active)
IC50 [3]: 24.5 µM (active)
IC50 (Hexokinase HKDC1): 16.1 µM (active)

Cc1nn(C)cc1CNC(=O)c1cnn2c(C(F)F)cc(C3CC3)nc12
IC50 [4]: 26.8 µM (not active)

COC(=O)c1c[nH]nc1N=C(S)Nc1ccccc1C
EC50 [5]: > 50 µM (not active)

CC1(C)CNc2cc(N)ccc2S1
IC50 [6]: 22.9 µM (active)
IC50 [7]: > 50 µM (not active)
IC50 [8]: 7.45 µM (active)

CCN(CC)c1nc(-c2ccccc2)nc2ccccc12
IC50 [9]: 53.1 µM (inactive)
IC50 [10]: > 80 µM (inactive)
